Assay results from patent US20260097111A1, “ETHER LIPIDS FOR HYPERACTIVATION OF MAMMALIAN DENDRITIC CELLS” (priority 2022, published 2026).
Entries after “also recorded” stand apart in the source; their conditions may differ.

Experiments:
[1] = system: human monocyte-derived dendritic cells (moDCs); assay: IL-1β secretion by human moDCs treated with lipid and R848; assay type: cell-based; conditions: for hyperactivation of human dendritic cells: 41.25 μM lipid with R848 (Compound 1 also 20.6 μM); for IL-1β secretion / IL-1β secretion, dependence on the NLRP3 inflammasome: human moDCs; for IL-1β secretion, dependence on the NLRP3 inflammasome: R848 + lipid with or without MCC950, one day, FIG. 3B
Experimental: (§1) Human monocytes were isolated from Leukopaks purchased from Miltenyi using the StraightFrom Leukopak CD14 microbead kit (Miltenyi). Isolations were completed following manufacturer's instructions. Monocytes were then aliquoted and frozen in fetal bovine serum containing 10% dimethyl sulfoxide. For studies with monocyte-derived dendritic cell (moDC) cultures, monocytes were thawed and cultured in RPMI medium containing 10% FBS, 50 units/mL penicillin, […] streptomycin, 2 mM L-glutamine, 1 mM sodium pyruvate, […] beta-mercaptoethanol, 10 mM HEPES, and Gibco MEM non-essential amino acids (R10 media). To differentiate monocytes into moDCs, recombinant human GM-CSF (50 ng/mL) and IL-4 (25 ng/mL) were added to R10 media. Cells were cultured for 6 days with GM-CSF and IL-4, with an additional cell feeding with R10 containing GM-CSF and IL-4 on day 3.
Six days after differentiation, moDC were collected and counted. Cells were plated into 96-well flat-bottom plates at 1×10^5 cells/well. Cells were treated with or without 1 μg/mL R848 (final) and with or without a hyperactivating lipid (or vehicle control). In some experiments, MCC950, an inhibitor of the NLRP3 inflammasome, was added at a final concentration of 10 uM. In some experiments, nigericin, which causes NLRP3 inflammasome activation and subsequent pyroptosis, was used as a positive control at 20 uM. Cells and stimuli totaled a final volume of […].
Lipid stocks were then further diluted in PBS to treat cells.
After an overnight incubation, cells and culture supernatant were used for downstream readouts. One hundred and fifty microliters of cell supernatant were collected. Viability was measured using the CellTiter-Glo assay (Promega) which measures ATP content from cells. Fifty microliters of CellTiter-Glo reagent were added to 50 μL of cells. Luminescence was quantified on a SpectraMax m5e plate reader using an integration time of 500 milliseconds. Viability data were set relative to control conditions where cells were treated with only R848. To measure IL-1β secretion, the human IL-1β Lumit kit (Promega) was used to assay cell culture supernatant. Culture supernatant samples were incubated with enzyme-linked antibodies in a 384-well plate for 1 hour before addition of luminescent substrate. Samples were measured for luminescence with an integration time of 500 milliseconds. IL-1β concentrations of samples was determined by interpolation from a standard curve using 4-parameter logistic regression analysis. Studies were performed on three different human donor samples, and each biological condition was tested in triplicate. Graphed data represent means from each donor.
as §1, with “Human moDC Production. Human” for “Human”, “(Miltenyi) according to the” for “(Miltenyi). Isolations were completed following”, “To differentiate” for “For studies with”, “pyruvate, and” for “pyruvate,”, “beta-mercaptoethanol” for “beta-mercaptoethanol, 10 mM HEPES, and Gibco MEM non-essential amino acids”
Hyperactivating Lipid Formulation—Compound 10. Lipid stocks were formulated at 200 μg/mL lipid in 5% Kolliphor P407 (KP407) in PBS.

[2] = system: murine FLT3L-DCs; assay: Murine bone marrow-derived FLT3L-DCs hyperactivation; assay type: cell-based, mice; conditions: FLT3L DCs; for IL-1β secretion: 1 μg/mL R848 2-3 hours alone or then 41 uM lipid, 48 hours, FIG. 4A; for viability: R848 then 41 uM lipid, FIG. 4B
Experimental: Murine bone marrow-derived FLT3L-DCs generation. Leg femur and tibia were removed from mice, cut with scissors, and flushed into sterile tubes. Bone marrow suspension was treated with ACK for 1 minute, then passed through a 40 um cell strainer. Cells were counted and resuspended in media consisting of complete IMDM containing 10% FBS, penicillin and streptomycin, and supplements of L-glutamine and sodium pyruvate (I10). […] For each experiment, 5 mice are used to collect BM and to generate DCs.
Lipid preparation. […] Lipid stocks were then further diluted in PBS to treat cells.
Murine bone marrow-derived FLT3L-DCs hyperactivation. BMDCs were harvested on day 8 post differentiation, washed with PBS, and re-plated in FLT3L-containing I10 at a concentration of 1×10^5 cells/mL. Cells were primed with or without 1 μg/mL R848 (final) then treated with or without a hyperactivating lipid (or vehicle control). Forty-eight hours post stimulation, supernatants were collected for cytokine measurement. Viability was measured using the CellTiter-Glo assay (Promega) which measures ATP content from cells. Fifty microliters of CellTiter-Glo reagent were added to 50 μL of cells. Luminescence was quantified on a SpectraMax m5e plate reader using an integration time of 500 milliseconds. Viability data were set relative to control conditions where cells were treated with R848. IL-1β and TNFα cytokine were measured using sandwich ELISAs (Invitrogen).

[3] = system: human moDCs; assay: IL-6 secretion by human moDCs; assay type: cell-based; conditions: human moDCs, 41.25 μM lipid with R848, compared with R848 + vehicle; FIG. 16
[4] = 20.6 uM lipid with R848 and 10 uM MCC950, FIG. 14
[5] = 20.6 uM lipid with R848 vs vehicle, FIG. 14
[6] = 41.25 μM lipid with R848, FIG. 17
[7] = 41.3 uM lipid with R848, FIG. 11
[8] = 41.3 uM lipid with R848 and MCC950, FIG. 11
[9] = 24 hours, lipid in 4% KP407 with R848, FIG. 2B

`CCCCCCCCCCCCCCCCCCOC[C@H](CO)OC(=O)NC` [Compound 11, (S)-1-hydroxy-3-(octadecyloxy)propan-2-yl methylcarbamate] was tested, and the “hyperactivation of moDC (IL-1β secretion with maintained viability)” value (“hyperactivation of moDC” for short) ([1]; 20.6 uM lipid with R848) was “hyperactivating lipids”, the “hyperactivation of human dendritic cells” value [1] was “hyperactivating lipids; also recorded: hyperactivated dendritic cells” and the IL-1β secretion [1, 4] was “inhibited”. The IL-1β secretion [1, 5] was “significantly more IL-1β was detected” and the IL-1β secretion [1, 6] was “significantly increased IL-1β secretion”.

In the case of `CCCCCCCCCCCCCCCCCCCCCCOC[C@H](CO)OC(=O)N(C)C` [Compound 14, (S)-1-(docosyloxy)-3-hydroxypropan-2-yl dimethylcarbamate], the “hyperactivation of human dendritic cells” value [1] is reported as “did not” and the IL-1β secretion [1, 6] is reported as “induced minimal IL-1β secretion”.

With `CCCCCCCCCCCCCCCCCCCCCCOC[C@H](CO)OC(=O)NC` [Compound 8, (S)-1-(docosyloxy)-3-hydroxypropan-2-yl methylcarbamate] the IL-1β secretion [2] was “induced the lowest levels of IL-1β secretion”, the viability [2] was “viability was not compromised” and the “hyperactivation of moDC” value ([1]; 41.3 uM lipid with R848) was “hyperactivating lipids”. The IL-1β secretion [1, 7] was “induced secretion of IL-1β”, the IL-1β secretion [1, 8] was “significantly reduced” and the IL-1β secretion [1, 9] was “produced significantly more IL-1β”. For the same molecule, the “IL-1β secretion, dependence on the NLRP3 inflammasome” value (shortened to “IL-1β secretion, dependence”) [1] was “depend on the NLRP3 inflammasome for IL-1β secretion”.

With `CCCCCCCCCCCCCCCCCCCCCCOC[C@H](COP(=O)(O)O)OC(=O)NC` [Compound 6, (R)-1-(docosyloxy)-3-(phosphonooxy)propan-2-yl methylcarbamate] the IL-6 secretion [3] was “IL-6 was secreted at similar levels”, the “hyperactivation of human dendritic cells” value [1] was “did not” and the IL-1β secretion [1, 6] was “induced minimal IL-1β secretion”.

`CCCCCCCCCCCCCCCCCCOC[C@@H](O)CO` [Compound 12, (S)-3-(octadecyloxy)propane-1,2-diol] was tested, and the “hyperactivation of moDC” value ([1]; 20.6 uM lipid with R848) was “hyperactivating lipids”, the “hyperactivation of human dendritic cells” value [1] was “hyperactivating lipids; also recorded: hyperactivated dendritic cells” and the IL-1β secretion [1, 4] was “inhibited”. For the same molecule, the IL-1β secretion [1, 5] was “significantly more IL-1β was detected” and the IL-1β secretion [1, 6] was “significantly increased IL-1β secretion”.

In the case of “(R)-2-((dimethylcarbamoyl)oxy)-3-ethoxypropyl (2-(trimethylammonio)ethyl) phosphate-icosane (1/1) [Compound 16]”, the “hyperactivation of human dendritic cells” value [1] is reported as “hyperactivating lipids; also recorded: hyperactivated dendritic cells” and the IL-1β secretion [1, 6] is reported as “significantly increased IL-1β secretion”.

In the case of `CCCCCCCCCCCCCCCCCCCCCCOC[C@@H](O)CO` [Compound 9, (S)-3-(docosyloxy)propane-1,2-diol], the IL-1β secretion ([1]; 41.25 μM lipid with R848 vs vehicle control, FIG. 8) is reported as “produced significantly more IL-1β”, the IL-1β secretion [1, 7] is reported as “robustly induced IL-113 secretion” and the IL-1β secretion [1, 9] is reported as “produced significantly more IL-1β”. The “IL-1β secretion, dependence” value [1] was “depend on the NLRP3 inflammasome for IL-1β secretion”.

`CCCCCCCCCCCCCCCCCCCCCCOC[C@H](CO)OC(N)=O` [Compound 7, (S)-1-(docosyloxy)-3-hydroxypropan-2-yl carbamate] was tested, and the IL-1β secretion [2] was “induced the lowest levels of IL-1β secretion”, the viability [2] was “viability was not compromised” and the “hyperactivation of moDC” value ([1]; 41.3 uM lipid with R848) was “hyperactivating lipids”. The IL-1β secretion [1, 7] was “induced secretion of IL-1β”, the IL-1β secretion [1, 8] was “significantly reduced” and the IL-1β secretion [1, 9] was “produced significantly more IL-1β”. For the same molecule, the “IL-1β secretion, dependence” value [1] was “depend on the NLRP3 inflammasome for IL-1β secretion”.

In the case of `CCCCCCCCCCCCCCCCCCOC[C@H](COP(=O)(O)O)OC(=O)NC` [Compound 13, (R)-1-(octadecyloxy)-3-(phosphonooxy)propan-2-yl methylcarbamate], the “hyperactivation of human dendritic cells” value [1] is reported as “hyperactivating lipids; also recorded: hyperactivated dendritic cells” and the IL-1β secretion [1, 6] is reported as “significantly increased IL-1β secretion”.

In the case of “(R)-3-(docosyloxy)-2-((methylcarbamoyl)oxy) propyl (2-(trimethylammonio) ethyl) phosphate [Compound 4]”, the “hyperactivation of human dendritic cells” value [1] is reported as “hyperactivating lipids; also recorded: hyperactivated dendritic cells” and the IL-1β secretion [1, 6] is reported as “significantly increased IL-1β secretion”.
